Usually EC50 stands for the midpoint of the concentration-response curve. In general, Emax refers to the size of the effect at its maximum, as opposed to the concentration needed. Broadly, the Ki is the equilibrium dissociation constant of an inhibitor or competing ligand from its target. High values mean lower affinity, low ones higher affinity.

The structures appear in SMILES notation.

T1 sequence (P33535 whole entry): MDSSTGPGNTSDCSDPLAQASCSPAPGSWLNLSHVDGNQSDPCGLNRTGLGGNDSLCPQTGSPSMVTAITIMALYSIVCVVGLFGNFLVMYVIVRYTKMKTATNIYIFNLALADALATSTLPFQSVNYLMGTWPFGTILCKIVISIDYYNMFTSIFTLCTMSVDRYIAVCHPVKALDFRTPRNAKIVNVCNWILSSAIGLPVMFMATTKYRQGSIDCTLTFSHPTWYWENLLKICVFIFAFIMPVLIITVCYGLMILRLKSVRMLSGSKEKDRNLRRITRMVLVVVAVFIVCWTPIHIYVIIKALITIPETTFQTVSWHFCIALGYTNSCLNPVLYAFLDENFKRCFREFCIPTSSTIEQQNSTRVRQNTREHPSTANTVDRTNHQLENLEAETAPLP

The first assay concerns the target T1, rat μ (C6-MOR) opioid receptor (Rattus norvegicus, UniProt P33535).
T1 construct: expressed in transfected cells
The assay can be described thus: Stimulation of [35S]GTPγS binding, MOR. The assay is classed as biochemical. The conditions noted are these: [35S]GTPγS binding, C6-MOR membranes; mean ± standard error. A digest of the protocol:
(§1)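 Membranes (10–20 μg protein) from C6 glioma cells expressing rat MOR or DOR, or CHO cells expressing human KOR, were incubated 1 h at room temperature with 0.1 nM [35S]GTPγS, 30 μM GDP and test peptides in Tris buffer pH 7.4. Bound label was filtered and counted; maximal stimulation, by nonlinear regression, was relative to 10 μM DAMGO (MOR), DPDPE (DOR) or U69,593 (KOR).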
On the technique in general: GTPγS is a poorly hydrolysed GTP analogue; its binding reports G protein activation.
In turn, `CCCN1CC[C@@H](NC(=O)[C@@H](N)Cc2c(C)cc(O)cc2C)c2cc(Cc3ccccc3)ccc21` [Compound 1006] showed an EC50 of 16.4 ± 8.18 nM.
`COc1cc(Cc2ccccc2)cc2c1NCC[C@H]2NC(=O)[C@@H](N)Cc1c(C)cc(O)cc1C` [Compound 1063] gave an EC50 of 2.5 ± 0.45 nM. Compared with the last molecule, the EC50 is about 6.6-fold lower.
As for `Cc1cc(O)cc(C)c1C[C@H](N)C(=O)N[C@@H]1CCNc2ccc(Cc3ccc4c(c3)OCCO4)cc21` [Compound 1050], the EC50 is 5.54 ± 0.12 nM.
Regarding `Cc1cc(O)cc(C)c1C[C@H](N)C(=O)N[C@@H]1C[C@@H](C)Nc2ccc(Cc3ccccc3)cc21` [Compound 1014], the EC50 was found to be 8.93 ± 4 nM.

Still in this assay, the particulars now being: [35S]GTPγS maximal stimulation compared with 10 μM standard DAMGO.
Consider `CCCN1CC[C@@H](NC(=O)[C@@H](N)Cc2c(C)cc(O)cc2C)c2cc(Cc3ccccc3)ccc21` [Compound 1006], for which the Emax was 83.1 ± 3.25%.
`COc1cc(Cc2ccccc2)cc2c1NCC[C@H]2NC(=O)[C@@H](N)Cc1c(C)cc(O)cc1C` [Compound 1063] came in with an Emax of 84.1 ± 0.96%.
`Cc1cc(O)cc(C)c1C[C@H](N)C(=O)N[C@@H]1CCNc2ccc(Cc3ccc4c(c3)OCCO4)cc21` [Compound 1050] showed an Emax of 87.5 ± 12%.
Same read-out and setting: as for `Cc1cc(O)cc(C)c1C[C@H](N)C(=O)N[C@@H]1C[C@@H](C)Nc2ccc(Cc3ccccc3)cc21` [Compound 1014], the figure is 87.8 ± 2%.

Another assay deals with T2, human κ (CHO-KOR) opioid receptor (Homo sapiens, UniProt P41145).
T2 construct: expressed in transfected cells
T2 sequence (P41145 whole entry): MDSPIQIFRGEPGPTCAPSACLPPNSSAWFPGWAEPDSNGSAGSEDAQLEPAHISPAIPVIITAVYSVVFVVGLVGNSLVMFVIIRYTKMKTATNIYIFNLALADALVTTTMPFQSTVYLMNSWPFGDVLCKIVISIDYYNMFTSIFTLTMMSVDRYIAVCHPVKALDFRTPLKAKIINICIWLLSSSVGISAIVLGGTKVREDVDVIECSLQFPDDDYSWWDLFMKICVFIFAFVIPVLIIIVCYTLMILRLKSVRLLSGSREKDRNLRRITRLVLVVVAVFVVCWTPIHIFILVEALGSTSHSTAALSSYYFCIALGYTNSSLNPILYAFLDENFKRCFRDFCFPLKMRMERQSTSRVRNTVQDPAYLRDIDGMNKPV
The assay can be described thus: Radioligand binding assay, [3H]diprenorphine displacement, KOR. The note with it: displacement of 0.2 nM [3H]diprenorphine, CHO-KOR membranes; mean ± standard error. A digest of the protocol:
(§2)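 Competitive displacement of 0.2 nM [3H]diprenorphine is measured on 20 μg membrane protein from C6-MOR, C6-DOR or CHO-KOR cells in 50 mM Tris-HCl, pH 7.4. Binding equilibrates for 1 h at room temperature; naloxone (10 μM) defines nonspecific binding.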
Molecule `CCCN1CC[C@@H](NC(=O)[C@@H](N)Cc2c(C)cc(O)cc2C)c2cc(Cc3ccccc3)ccc21` [Compound 1006] returned a Ki of 71.7 ± 20 nM.
As to `COc1cc(Cc2ccccc2)cc2c1NCC[C@H]2NC(=O)[C@@H](N)Cc1c(C)cc(O)cc1C` [Compound 1063], the Ki is 29.9 ± 10.4 nM.
Regarding `Cc1cc(O)cc(C)c1C[C@H](N)C(=O)N[C@@H]1CCNc2ccc(Cc3ccc4c(c3)OCCO4)cc21` [Compound 1050], the Ki turned out to be 116 ± 65.1 nM. This Ki lies about 3.9-fold higher than the previous one.
`Cc1cc(O)cc(C)c1C[C@H](N)C(=O)N[C@@H]1C[C@@H](C)Nc2ccc(Cc3ccccc3)cc21` [Compound 1014] registered a Ki of 238 ± 21.7 nM.

In the next assay the target is T3, rat δ (C6-DOR) opioid receptor (Rattus norvegicus, UniProt P33533).
T3 construct: expressed in transfected cells
T3 sequence (P33533 whole entry): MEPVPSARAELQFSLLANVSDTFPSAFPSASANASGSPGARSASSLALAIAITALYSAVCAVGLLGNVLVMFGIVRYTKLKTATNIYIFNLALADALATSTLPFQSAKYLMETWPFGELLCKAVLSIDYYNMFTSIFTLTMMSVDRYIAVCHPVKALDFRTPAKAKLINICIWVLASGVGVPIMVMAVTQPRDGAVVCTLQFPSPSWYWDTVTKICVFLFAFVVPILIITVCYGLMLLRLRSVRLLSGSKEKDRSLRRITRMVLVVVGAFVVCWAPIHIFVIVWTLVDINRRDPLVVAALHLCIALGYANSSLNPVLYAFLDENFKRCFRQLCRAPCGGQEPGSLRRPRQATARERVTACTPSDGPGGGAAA
The assay can be described thus: Radioligand binding assay, [3H]diprenorphine displacement, DOR. The conditions noted are these: displacement of 0.2 nM [3H]diprenorphine, C6-DOR membranes; mean ± standard error. An outline of the steps: as §2
For the molecule `CCCN1CC[C@@H](NC(=O)[C@@H](N)Cc2c(C)cc(O)cc2C)c2cc(Cc3ccccc3)ccc21` [Compound 1006], the affinity corresponds to a Ki of 1.72 ± 0.61 nM.
Still for that read-out and setting: to `COc1cc(Cc2ccccc2)cc2c1NCC[C@H]2NC(=O)[C@@H](N)Cc1c(C)cc(O)cc1C` [Compound 1063] belongs 3.08 ± 1 nM; to `Cc1cc(O)cc(C)c1C[C@H](N)C(=O)N[C@@H]1CCNc2ccc(Cc3ccc4c(c3)OCCO4)cc21` [Compound 1050], 5.48 ± 0.81 nM.
The same measure, in the same setting: as for `Cc1cc(O)cc(C)c1C[C@H](N)C(=O)N[C@@H]1C[C@@H](C)Nc2ccc(Cc3ccccc3)cc21` [Compound 1014], the figure is 87.2 ± 56.2 nM.

A further assay deals with T1, rat μ (C6-MOR) opioid receptor. The assay can be described thus: Radioligand binding assay, [3H]diprenorphine displacement, MOR. The note with it: displacement of 0.2 nM [3H]diprenorphine, C6-MOR membranes; mean ± standard error. An outline of the steps:
as §2
Molecule `CCCN1CC[C@@H](NC(=O)[C@@H](N)Cc2c(C)cc(O)cc2C)c2cc(Cc3ccccc3)ccc21` [Compound 1006] had a Ki of 0.34 ± 0.21 nM.
`COc1cc(Cc2ccccc2)cc2c1NCC[C@H]2NC(=O)[C@@H](N)Cc1c(C)cc(O)cc1C` [Compound 1063]: the affinity, expressed as Ki, was 0.24 ± 0.11 nM.
`Cc1cc(O)cc(C)c1C[C@H](N)C(=O)N[C@@H]1CCNc2ccc(Cc3ccc4c(c3)OCCO4)cc21` [Compound 1050] displayed a Ki of 0.35 ± 0.11 nM.
`Cc1cc(O)cc(C)c1C[C@H](N)C(=O)N[C@@H]1C[C@@H](C)Nc2ccc(Cc3ccccc3)cc21` [Compound 1014] had a Ki of 1.24 ± 0.5 nM.

The target of a further assay is T2, human κ (CHO-KOR) opioid receptor. The assay can be described thus: Stimulation of [35S]GTPγS binding, KOR. The assay is classed as biochemical. The note with it: [35S]GTPγS binding, CHO-KOR membranes; mean ± standard error. As to the method:
In Vitro Pharmacology-Cell Lines and Membrane Preparations. All tissue culture reagents were purchased from Gibco Life Sciences (Grand Island, N.Y., U.S.). C6-rat glioma cells stably transfected with a rat μ (C6-MOR) or rat δ (C6-DOR) opioid receptor20 and Chinese hamster ovary (CHO) cells stably expressing a human K (CHO-KOR) opioid receptor21 were used for all in vitro assays. Cells were grown to confluence at 37° C. in 5% CO2 in Dulbecco's modified Eagle medium containing 10% fetal bovine serum and 5% penicillin/streptomycin. Membranes were prepared by washing confluent cells three times with ice cold phosphate buffered saline (0.9% NaCl, 0.61 mM Na2HPO4, 0.38 mM KH2PO4, pH 7.4). Cells were detached from the plates by incubation in warm harvesting buffer (20 mM HEPES, 150 mM NaCl, 0.68 mM EDTA, pH 7.4) and pelleted by centrifugation at 200 g for 3 min. The cell pellet was suspended in ice-cold 50 mM Tris-HCl buffer, pH 7.4, and homogenized with a Tissue Tearor (Biospec Products, Inc., Bartlesville, Okla., U.S.) for 20 s at setting 4. The homogenate was centrifuged at 20 000 g for 20 min at 4° C., and the pellet was rehomogenized in 50 mM Tris-HCl with a Tissue Tearor for 10 s at setting 2, followed by recentrifugation. The final pellet was resuspended in 50 mM Tris-HCl and frozen in aliquots at […]. Protein concentration was determined via Bradford assay using bovine serum albumin as the standard.
Stimulation of [^35S]GTPyS Binding. Agonist stimulation of [35S]guanosine 5′-O-[γ-thio]triphosphate ([^35S]GTPγS, 1250 Ci, 46.2 TBq/mmol) binding was measured as described previously Briefly, membranes (10-20 μg of protein/tube) were incubated 1 h at room temperature in GTPyS buffer (50 mM Tris-HCl, 100 mM NaCl, 5 mM MgCl2, pH 7.4) containing 0.1 nM [^35S]GTPγS, 30 μM guanosine diphosphate (GDP), and varying concentrations of test peptides. Peptide stimulation of [^35S]GTPyS was compared with 10 μM standard compounds [D-Ala^2,N-MePhe^4,Gly-ol]encephalin (DAMGO) at MOR, D-Pen^2,5-enkephalin (DPDPE) at DOR, or […] at KOR. The reaction was terminated by rapidly filtering through GF/C filters and washing 10 times with GTPyS buffer, and retained radioactivity was measured as described above. The results presented are the mean±standard error from at least three separate assays performed in duplicate; maximal stimulation was determined using nonlinear regression analysis with GraphPad Prism (GraphPad Software Inc., La Jolla, Calif.).
`CCCN1CC[C@@H](NC(=O)[C@@H](N)Cc2c(C)cc(O)cc2C)c2cc(Cc3ccccc3)ccc21` [Compound 1006] registered an EC50 of 5010 ± 1020 nM.
For the molecule `COc1cc(Cc2ccccc2)cc2c1NCC[C@H]2NC(=O)[C@@H](N)Cc1c(C)cc(O)cc1C` [Compound 1063], the “EC50 (nm) KOR” value is “dns”.
Turning to `Cc1cc(O)cc(C)c1C[C@H](N)C(=O)N[C@@H]1CCNc2ccc(Cc3ccc4c(c3)OCCO4)cc21` [Compound 1050], the “EC50 (nm) KOR” value is given as “dns”.
The molecule `Cc1cc(O)cc(C)c1C[C@H](N)C(=O)N[C@@H]1C[C@@H](C)Nc2ccc(Cc3ccccc3)cc21` [Compound 1014] came in with an EC50 of 4070 nM.

Still in this assay, the particulars now being: [35S]GTPγS maximal stimulation compared with 10 μM standard U-69,593.
The molecule `CCCN1CC[C@@H](NC(=O)[C@@H](N)Cc2c(C)cc(O)cc2C)c2cc(Cc3ccccc3)ccc21` [Compound 1006] yielded an Emax of 38.2 ± 3.42%.
`COc1cc(Cc2ccccc2)cc2c1NCC[C@H]2NC(=O)[C@@H](N)Cc1c(C)cc(O)cc1C` [Compound 1063]: the “% stimulation KOR” value is recorded as “dns”.
`Cc1cc(O)cc(C)c1C[C@H](N)C(=O)N[C@@H]1CCNc2ccc(Cc3ccc4c(c3)OCCO4)cc21` [Compound 1050]: the “% stimulation KOR” value is given as “dns”.
Take `Cc1cc(O)cc(C)c1C[C@H](N)C(=O)N[C@@H]1C[C@@H](C)Nc2ccc(Cc3ccccc3)cc21` [Compound 1014]: the Emax is 28.9 ± 12.3%.

In the next assay the target is T3, rat δ (C6-DOR) opioid receptor. The assay can be described thus: Stimulation of [35S]GTPγS binding, DOR. The assay is classed as biochemical. The note with it: [35S]GTPγS binding, C6-DOR membranes; mean ± standard error. A digest of the protocol:
as §1
The molecule `CCCN1CC[C@@H](NC(=O)[C@@H](N)Cc2c(C)cc(O)cc2C)c2cc(Cc3ccccc3)ccc21` [Compound 1006] showed an EC50 of 2330 ± 1030 nM.
As to `COc1cc(Cc2ccccc2)cc2c1NCC[C@H]2NC(=O)[C@@H](N)Cc1c(C)cc(O)cc1C` [Compound 1063], the EC50 worked out at 63.3 ± 12.2 nM.
On to `Cc1cc(O)cc(C)c1C[C@H](N)C(=O)N[C@@H]1CCNc2ccc(Cc3ccc4c(c3)OCCO4)cc21` [Compound 1050], for which the “EC50 (nm) DOR” value was “dns”.
Take `Cc1cc(O)cc(C)c1C[C@H](N)C(=O)N[C@@H]1C[C@@H](C)Nc2ccc(Cc3ccccc3)cc21` [Compound 1014]: the EC50 amounted to 627 ± 88.9 nM.

The same assay, now with this note: [35S]GTPγS maximal stimulation compared with 10 μM standard DPDPE.
`CCCN1CC[C@@H](NC(=O)[C@@H](N)Cc2c(C)cc(O)cc2C)c2cc(Cc3ccccc3)ccc21` [Compound 1006] registered an Emax of 39.3 ± 5.45%.
`COc1cc(Cc2ccccc2)cc2c1NCC[C@H]2NC(=O)[C@@H](N)Cc1c(C)cc(O)cc1C` [Compound 1063] gave an Emax of 50.8 ± 9.61%.
In the case of `Cc1cc(O)cc(C)c1C[C@H](N)C(=O)N[C@@H]1CCNc2ccc(Cc3ccc4c(c3)OCCO4)cc21` [Compound 1050], the “% stimulation DOR” value is on record as “dns”.
The molecule `Cc1cc(O)cc(C)c1C[C@H](N)C(=O)N[C@@H]1C[C@@H](C)Nc2ccc(Cc3ccccc3)cc21` [Compound 1014] came in with an Emax of 44.9 ± 8.25%.

The values above are taken from patent US10519114B2, “Peptidomimetics and methods of using the same” (The Regents of the University of Michigan, priority 2016, dated 2019).
